Like-named read-outs stand apart in the source and are kept apart here.
What was measured:
MS751 cells = assay: MTT cell proliferation assay, MS751; assay type: cell-based, human; conditions: Homo sapiens, MS751, MS751 cells, read-out: MTT Assay IC50, MS751
Method in brief: (§1)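 Seeding 5,000-10,000 cells/well, overnight attachment; 8 concs, 1 nM–30 μM. MTT ~4 h, formazan solubilized, OD 490 nm. % inhibition vs negative control, mostly duplicate, mean±SE.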

Z138 cells = assay: MTT cell proliferation assay, Z138; assay type: cell-based; conditions: Homo sapiens, Z-138, Z138 cells, read-out: MTT Assay IC50, Z138
Method in brief: as §1

3T3 cells = assay: MTT cell proliferation assay, 3T3; assay type: cell-based, mouse; conditions: Mus musculus, NIH3T3, 3T3 cells, read-out: MTT Assay IC50, 3T3
Method in brief: as §1

[1] = approximately 64-72 hours incubation
[2] = eight concentrations 1 nM to 30 μM, incubation approximately 64-72 hours

With Nc1ccc(/C=C/C(=O)NCC2Cc3c(-c4cncc(C(=O)N5CCOCC5)c4)ccc(Cl)c3O2)cn1 (stereo not drawn) [Compound 913, (E)-3-(6-aminopyridin-3-yl)-N-((7-chloro-4-(5-(morpholine-4-carbonyl)pyridin-3-yl)-2,3-dihydrobenzofuran-2-yl)methyl)acrylamide] the IC50 (MS751 cells; [1]) was 0.1 to 5 µM, the IC50 (Z138 cells; [1]) was 0.1 to 5 µM and the IC50 (3T3 cells; [1]) was 5 to 30 µM.

With C/C=C/C(=O)NCC1Cc2cc(-c3ccc(C(C)=O)s3)cc(Cl)c2O1 (stereo not drawn) [Compound 181, (E)-N-((5-(5-acetylthiophen-2-yl)-7-chloro-2,3-dihydrobenzofuran-2-yl)methyl)but-2-enamide] the IC50 (MS751 cells; [2]) was over 30 µM, the IC50 (Z138 cells; [2]) was over 30 µM and the IC50 (3T3 cells; [2]) was over 30 µM.

Work on O=C(/C=C/c1cccnc1)NCC1Cc2cc(-c3cccc(CO)c3)cc(Cl)c2O1 (stereo not drawn) [Compound 58, (E)-N-((7-chloro-5-(3-(hydroxymethyl)phenyl)-2,3-dihydrobenzofuran-2-yl)methyl)-3-(pyridin-3-yl)acrylamide] yielded an IC50 (MS751 cells; [2]) of 0.1 to 5 µM, an IC50 (Z138 cells; [2]) of 0.1 to 5 µM and an IC50 (3T3 cells; [2]) of 0.1 to 5 µM.

Nc1ccc(CNC(=O)/C=C/C2Cc3c(-c4ccc(S(=O)(=O)N5CCOCC5)cc4)ccc(Cl)c3O2)cn1 (stereo not drawn) [Compound 364, (E)-N-((6-aminopyridin-3-yl)methyl)-3-(7-chloro-4-(4-(morpholinosulfonyl)phenyl)-2,3-dihydrobenzofuran-2-yl)acrylamide] showed an IC50 (MS751 cells; [1]) of 0.1 to 5 µM, an IC50 (Z138 cells; [1]) of over 30 µM and an IC50 (3T3 cells; [1]) of 5 to 30 µM.

CC(=O)c1ccc(-c2cc(Cl)c3c(c2)CC(CNC(=O)/C=C/c2nccn2C)O3)s1 (stereo not drawn) [Compound 164, (E)-N-((5-(5-acetylthiophen-2-yl)-7-chloro-2,3-dihydrobenzofuran-2-yl)methyl)-3-(1-methyl-1H-imidazol-2-yl)acrylamide] gave an IC50 (MS751 cells; [2]) of over 30 µM, an IC50 (Z138 cells; [2]) of over 30 µM and an IC50 (3T3 cells; [2]) of over 30 µM.

CC(=O)c1ccc(-c2cc(Cl)c3c(c2)CC(CNC(=O)/C=C/c2c(Cl)nc4sccn24)O3)s1 (stereo not drawn) [Compound 276, (E)-N-((5-(5-acetylthiophen-2-yl)-7-chloro-2,3-dihydrobenzofuran-2-yl)methyl)-3-(6-chloroimidazo[2,1-b]thiazol-5-yl)acrylamide] showed an IC50 (MS751 cells; [2]) of over 30 µM, an IC50 (Z138 cells; [2]) of over 30 µM and an IC50 (3T3 cells; [2]) of over 30 µM.

CC(=O)c1ccc(-c2cc(Cl)c3c(c2)CC(CNC(=O)/C=C/c2c(C)noc2C)O3)s1 (stereo not drawn) [Compound 147, (E)-N-((5-(5-acetylthiophen-2-yl)-7-chloro-2,3-dihydrobenzofuran-2-yl)methyl)-3-(3,5-dimethylisoxazol-4-yl)acrylamide] gave an IC50 (MS751 cells; [2]) of 0.1 to 5 µM, an IC50 (Z138 cells; [2]) of 0.1 to 5 µM and an IC50 (3T3 cells; [2]) of over 30 µM.

With CN1C(=O)c2ccc(-c3cc(Cl)c4c(c3)CC(CNC(=O)/C=C/c3ccc(N)nc3)O4)cc2C1=O (stereo not drawn) [Compound 343, (E)-3-(6-aminopyridin-3-yl)-N-((7-chloro-5-(2-methyl-1,3-dioxoisoindolin-5-yl)-2,3-dihydrobenzofuran-2-yl)methyl)acrylamide] the IC50 (MS751 cells; [1]) was 0.1 to 5 µM, the IC50 (Z138 cells; [1]) was over 30 µM and the IC50 (3T3 cells; [1]) was under 0.1 µM.

Work on CC(=O)c1ccc(-c2cc(Cl)c3c(c2)CC(CNC(=O)/C(C#N)=C/c2cccnc2)O3)s1 (stereo not drawn) [Compound 195, (E)-N-((5-(5-acetylthiophen-2-yl)-7-chloro-2,3-dihydrobenzofuran-2-yl)methyl)-2-cyano-3-(pyridin-3-yl)acrylamide] yielded an IC50 (MS751 cells; [1]) of 5 to 30 µM, an IC50 (Z138 cells; [1]) of 5 to 30 µM and an IC50 (3T3 cells; [1]) of over 30 µM.

For CC(=O)c1ccc(-c2ccc(Cl)c3c2CC(CNC(=O)/C=C/c2cccnc2)O3)s1 (stereo not drawn) [Compound 173, (E)-N-((4-(5-acetylthiophen-2-yl)-7-chloro-2,3-dihydrobenzofuran-2-yl)methyl)-3-(pyridin-3-yl)acrylamide], the IC50 (MS751 cells; [2]) was 0.1 to 5 µM, the IC50 (Z138 cells; [2]) was 0.1 to 5 µM and the IC50 (3T3 cells; [2]) was 0.1 to 5 µM.

With Nc1ccc(/C=C/C(=O)NCC2Cc3cc(-c4ccc(C(=O)N5CCOCC5)c(F)c4F)cc(Cl)c3O2)cn1 (stereo not drawn) [Compound 901, (E)-3-(6-aminopyridin-3-yl)-N-((7-chloro-5-(2,3-difluoro-4-(morpholine-4-carbonyl)phenyl)-2,3-dihydrobenzofuran-2-yl)methyl)acrylamide] the IC50 (MS751 cells; [1]) was under 0.1 µM, the IC50 (Z138 cells; [1]) was under 0.1 µM and the IC50 (3T3 cells; [1]) was 0.1 to 5 µM.

Work on Nc1ccc(CNC(=O)/C=C/C2Cc3cc(-c4ccc(C(=O)N5CC[C@@H](F)C5)cc4)cc(Cl)c3O2)cn1 (stereo partly drawn) [Compound 358, (E)-N-((6-aminopyridin-3-yl)methyl)-3-(7-chloro-5-(4-((R)-3-fluoropyrrolidine-1-carbonyl)phenyl)-2,3-dihydrobenzofuran-2-yl)acrylamide] yielded an IC50 (MS751 cells; [1]) of 0.1 to 5 µM, an IC50 (Z138 cells; [1]) of over 30 µM and an IC50 (3T3 cells; [1]) of 0.1 to 5 µM.

For CC(=O)c1ccc(-c2cc(Cl)c3c(c2)CC(CNC(=O)/C=C/c2sccc2C)O3)s1 (stereo not drawn) [Compound 152, (E)-N-((5-(5-acetylthiophen-2-yl)-7-chloro-2,3-dihydrobenzofuran-2-yl)methyl)-3-(3-methylthiophen-2-yl)acrylamide], the IC50 (MS751 cells; [2]) was over 30 µM, the IC50 (Z138 cells; [2]) was over 30 µM and the IC50 (3T3 cells; [2]) was over 30 µM.

Nc1ccc(/C=C/C(=O)NCC2Cc3cc(-c4ccc(C(=O)NNc5cnccn5)cc4)cc(Cl)c3O2)cn1 (stereo not drawn) [Compound 904, (E)-3-(6-aminopyridin-3-yl)-N-((7-chloro-5-(4-(2-(pyrazin-2-yl) hydrazine-1-carbonyl)phenyl)-2,3-dihydrobenzofuran-2-yl)methyl)acrylamide] was tested, and the IC50 (MS751 cells; [1]) was under 0.1 µM, the IC50 (Z138 cells; [1]) was under 0.1 µM and the IC50 (3T3 cells; [1]) was 0.1 to 5 µM.

CC(=O)c1ccc(-c2cc(Cl)c3c(c2)CC(CNC(=O)/C=C/c2ccc[n+]([O-])c2)O3)s1 (stereo not drawn) [Compound 28, (E)-N-((5-(5-acetylthiophen-2-yl)-7-chloro-2,3-dihydrobenzofuran-2-yl)methyl)-3-(pyridine-1-oxide-3-yl)acrylamide] gave an IC50 (MS751 cells; [2]) of over 30 µM, an IC50 (Z138 cells; [2]) of over 30 µM and an IC50 (3T3 cells; [2]) of over 30 µM.

For Cc1noc(C)c1-c1cc(Cl)c2c(c1)CC(CNC(=O)/C=C/c1cccnn1)O2 (stereo not drawn) [Compound 235, (E)-N-((7-chloro-5-(3,5-dimethylisoxazol-4-yl)-2,3-dihydrobenzofuran-2-yl)methyl)-3-(pyridazin-3-yl)acrylamide], the IC50 (MS751 cells; [1]) was 0.1 to 5 µM, the IC50 (Z138 cells; [1]) was 0.1 to 5 µM and the IC50 (3T3 cells; [1]) was 5 to 30 µM.

Compound CC(=O)c1ccc(-c2cc(Cl)c3c(c2)CC(CNC(=O)/C=C/c2cnccc2N)O3)s1 (stereo not drawn) [Compound 108, (E)-N-((5-(5-acetylthiophen-2-yl)-7-chloro-2,3-dihydrobenzofuran-2-yl)methyl)-3-(4-aminopyridin-3-yl)acrylamide] has an IC50 (MS751 cells; [2]) of 0.1 to 5 µM, an IC50 (Z138 cells; [2]) of 0.1 to 5 µM and an IC50 (3T3 cells; [2]) of 5 to 30 µM.

For Nc1ccc(/C=C/C(=O)NCC2Cc3cc(-c4ccc(C(=O)N5CCOCC5)cn4)cc(Cl)c3O2)cn1 (stereo not drawn) [Compound 333, (E)-3-(6-Aminopyridin-3-yl)-N-((7-chloro-5-(5-(morpholine-4-carbonyl)pyridin-2-yl)-2,3-dihydrobenzofuran-2-yl)methyl)acrylamide], the IC50 (MS751 cells; [1]) was under 0.1 µM, the IC50 (Z138 cells; [1]) was under 0.1 µM and the IC50 (3T3 cells; [1]) was 5 to 30 µM.

CC(=O)c1ccc(-c2cc(Cl)c3c(c2)CC(CNC(=O)/C=C/c2cnn(C)c2C)O3)s1 (stereo not drawn) [Compound 157, (E)-N-((5-(5-acetylthiophen-2-yl)-7-chloro-2,3-dihydrobenzofuran-2-yl)methyl)-3-(1,5-dimethyl-1H-pyrazol-4-yl)acrylamide] was tested, and the IC50 (MS751 cells; [2]) was over 30 µM, the IC50 (Z138 cells; [2]) was over 30 µM and the IC50 (3T3 cells; [2]) was over 30 µM.

COc1cccc(-c2cc(Cl)c3c(c2)CC(CNC(=O)/C=C/c2cccnc2)O3)c1F (stereo not drawn) [Compound 39, (E)-N-((7-chloro-5-(2-fluoro-3-methoxyphenyl)-2,3-dihydrobenzofuran-2-yl)methyl)-3-(pyridin-3-yl)acrylamide] was tested, and the IC50 (MS751 cells; [2]) was 0.1 to 5 µM, the IC50 (Z138 cells; [2]) was 0.1 to 5 µM and the IC50 (3T3 cells; [2]) was 0.1 to 5 µM.

CC(=O)c1ccc(-c2cc(Cl)c3c(c2)CC(CNC(=O)/C=C/c2cnc(N)nc2)O3)s1 (stereo not drawn) [Compound 104, (E)-N-((5-(5-acetylthiophen-2-yl)-7-chloro-2,3-dihydrobenzofuran-2-yl)methyl)-3-(2-aminopyrimidin-5-yl)acrylamide] gave an IC50 (MS751 cells; [2]) of over 30 µM, an IC50 (Z138 cells; [2]) of over 30 µM and an IC50 (3T3 cells; [2]) of over 30 µM.

For CC(=O)c1ccc(-c2cc(Cl)c3c(c2)CC(CNC(=O)/C=C/c2ccc(N)cc2)O3)s1 (stereo not drawn) [Compound 114, (E)-N-((5-(5-acetylthiophen-2-yl)-7-chloro-2,3-dihydrobenzofuran-2-yl)methyl)-3-(4-aminophenyl)acrylamide], the IC50 (MS751 cells; [2]) was over 30 µM, the IC50 (Z138 cells; [2]) was over 30 µM and the IC50 (3T3 cells; [2]) was over 30 µM.

CC(=O)c1ccc(-c2cc(Cl)c3c(c2)CC(CNC(=O)/C=C/c2cncc(F)c2)O3)s1 (stereo not drawn) [Compound 298, (E)-N-((5-(5-acetylthiophen-2-yl)-7-chloro-2,3-dihydrobenzofuran-2-yl)methyl)-3-(5-fluoropyridin-3-yl)acrylamide] showed an IC50 (MS751 cells; [1]) of over 30 µM, an IC50 (Z138 cells; [1]) of 0.1 to 5 µM and an IC50 (3T3 cells; [1]) of over 30 µM.

In the case of CC(=O)c1ccc(-c2cc(Cl)c3c(c2)CC(CNC(=O)/C=C/c2csc4ccccc24)O3)s1 (stereo not drawn) [Compound 200, (E)-N-((5-(5-acetylthiophen-2-yl)-7-chloro-2,3-dihydrobenzofuran-2-yl)methyl)-3-(benzo[b]thiophen-3-yl) acrylamide], the IC50 (MS751 cells; [1]) is reported as over 30 µM, the IC50 (Z138 cells; [1]) is reported as over 30 µM and the IC50 (3T3 cells; [1]) is reported as over 30 µM.

CC(OC(=O)CCCC[C@@H]1SC[C@@H]2NC(=O)N[C@@H]21)c1ccc(-c2cc(Cl)c3c(c2)CC(CNC(=O)/C=C/c2cccnc2)O3)s1 (stereo partly drawn) [Compound 162, 1-(5-(7-chloro-2-(((E)-3-(pyridin-3-yl)acrylamido)methyl)-2,3-dihydrobenzofuran-5-yl)thiophen-2-yl)ethyl 5-((3aS,4S,6aR)-2-oxohexahydro-1H-thieno[3,4-d]imidazol-4-yl)pentanoate] showed an IC50 (MS751 cells; [2]) of under 0.1 µM, an IC50 (Z138 cells; [2]) of under 0.1 µM and an IC50 (3T3 cells; [2]) of 0.1 to 5 µM.

Reference: patent US9938258B2 (Karyopharm Therapeutics Inc., priority 2012, dated 2018)
